Experimental data reported in patent US8912227B1, “Bicyclic pyrrole derivatives useful as agonists of GPR120” (Janssen Pharmaceutica NV, priority 2014, dated 2014).

Key:
Human GPR120 short form [1] = molecular target: T1, Human GPR120 short form (Homo sapiens, UniProt Q5NUL3); test: Human GPR120 calcium flux assay, Procedure Calcium A; format: cell-based; settings: HEK-293 cells expressing human GPR120 short form, 2500 cells/well, FLIPR
T1 construct: expressed in transfected cells
T1 sequence (Q5NUL3 1-361): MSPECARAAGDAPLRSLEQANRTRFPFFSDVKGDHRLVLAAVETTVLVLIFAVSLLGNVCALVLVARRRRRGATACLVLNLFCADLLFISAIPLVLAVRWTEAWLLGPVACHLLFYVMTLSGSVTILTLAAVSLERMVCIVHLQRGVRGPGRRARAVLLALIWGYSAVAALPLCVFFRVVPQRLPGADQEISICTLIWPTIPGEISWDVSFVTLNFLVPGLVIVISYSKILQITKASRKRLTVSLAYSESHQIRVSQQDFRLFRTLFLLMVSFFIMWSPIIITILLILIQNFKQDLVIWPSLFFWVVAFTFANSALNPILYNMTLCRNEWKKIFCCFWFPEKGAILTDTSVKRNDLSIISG
How it was run: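 HEK293 cells stably expressing the human GPR120 short splice variant (NM_001195755.1) were seeded at 2500 cells/well, serum-starved 1 h and loaded with Fluo-4 NW plus probenecid. Compounds (100–0.012 μM solutions, 0.2% final DMSO) were added, and FLIPR calcium flux was read for 300 s. EC50 came from a variable-slope fit (Hill <2) of Fmax−Fmin.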

Human GPR120 short form [2] = molecular target: T1, Human GPR120 short form; test: Human GPR120 calcium flux assay, Procedure Calcium B; format: cell-based; settings: HEK-293 cells expressing human GPR120 short form, 4200 cells/well, FLIPR
C57bl/6J Mice = test: GPR120 C57bl6 mouse IPGTT; format: in vivo; settings: 30.0 mg/kg, dosed 30 minutes prior to IP glucose 1.5 g/kg; compared with vehicle
Experimental: Male, C57bl/6J Mice were ordered in at 8 weeks of age from Jackson Labs. Individual mice weighed anywhere in the range of 25-30 grams on study day. The mice were fasted, with removal of food occurring at 7 am on the morning of the study. Animals were moved into the room at 10:00 am, to give them time to acclimate. Glucose (insulin syringes) was drawn up either the night before or the morning of the study. Glucose was dosed (IP) at 1.5 g/kg at 7.5 ml/kg (20% glucose straight TEKNOVA, 250 ml sterile bottle w/ catalogue number G0525). Test compounds were kept spinning and were only drawn into the syringes prior to study commencement. Animals were bled via tail snip to determine basal glucose levels prior to dosing of treatments. An Ascensia BREEZE Blood Glucose Monitoring System by Bayer (using unique 10-test disks) was used for determining glucose levels. The bleeds started at approximately 12:45 pm and dosing started, at 1-minute intervals, immediately after. All groups were dosed 30 minutes prior to glucose administration at a dose volume of 10 ml/kg (the dose volume was calculated separately for each individual animal). Thirty minutes after the first dose animals were bled again for a second baseline, or T=0, and immediately dosed with glucose via an i.p. injection. The exact dose volume for glucose was also calculated separately for each individual animal. […]

Compound	EC50 (Human GPR120 short form [1]) [nM]	EC50 (Human GPR120 short form [2]) [nM]	GPR120 C57bl6 Mouse IPGTT Results (C57bl/6J Mice)
Cc1ccc(-n2ccc(C(F)(F)F)c2COc2c(F)cc(CCC(=O)O)cc2F)cc1 [Compound 39, 3-(3,5-difluoro-4-[[1-(4-methylphenyl)-3-(trifluoromethyl)-1H-pyrrol-2-yl]methoxy]phenyl)propanoic acid]	306	50	
Cc1c(CCC(=O)O)ccc(OCc2cccn2-c2ccc(Cl)cc2)c1C [Compound 1, 3-(4-{[1-(4-Chlorophenyl)-1H-pyrrol-2-yl]methoxy}-2,3-dimethylphenyl)propanoic acid]	353		not different
OCCCc1ccc(OCc2c(C(F)(F)F)ccn2-c2ccc(Cl)cc2)c(F)c1F [Compound 29, 3-(4-{[1-(4-Chlorophenyl)-3-(trifluoromethyl)-1H-pyrrol-2-yl]methoxy}-2,3-difluorophenyl)propan-1-ol]	1010	162	
CCc1ccc(-n2ccc(C(F)(F)F)c2COc2ccc(CCC(=O)O)c(F)c2F)cc1 [Compound 34, 3-(4-[[1-(4-ethylphenyl)-3-(trifluoromethyl)-1H-pyrrol-2-yl]methoxy]-2,3-difluorophenyl)propanoic acid]	517	40	
